Measurements as given in patent EP4341264B1, “PYRROLOPIRIMIDINE DERIVATIVES AND THEIR USE IN THE TREATMENT OF LEISHMANIASIS” (Drugs for Neglected Diseases Initiative, priority 2021, dated 2022).
Like-named read-outs stand apart in the source and are kept apart here.

Columns and labels:
[1] = tested on: L. infantum; experiment: VL hamster model in vivo efficacy (reduction of parasite load vs. control); conditions: 40 mg/kg qd, 5 days
Protocol: The in vivo efficacy of the compounds C1, C3, C4, and miltefosine was evaluated in a VL hamster model infected with L. infantum. The in vivo studies were performed in accordance with the methods described by Van den Kerkhof et al. [IJP: Drugs and Drug Resistance, 2018, 8, Issue 1, 81-86]. Following treatment, the reduction of parasite load vs. control was determined in different body compartments (liver, spleen, and bone marrow) with results presented in Table 4. Table 4. Hamster in vivo efficacy

[2] = tested on: MRC-5SV2 cells; conditions: printed in SI column; data from IJP: Drugs and Drug Resistance, 2018, 8, 81-86; cited from earlier work
[3] = tested on: L. infantum (MHOM/MA/67/ITMAP263); conditions: cited from earlier work
[4] = tested on: L. panamensis (MHOM/PA/71/LS94); experiment: Leishmania clinical isolate panel screen (drug-susceptibility assay in infected macrophages); type: cell-based; conditions: Macrophage, Cutaneous leishmaniasis, L. panamensis (MHOM/PA/71/LS94), Miltefosine: mean only, read-out: IC50 Mean ± SEM
Protocol: (§1) Female Swiss mice (BW ~20 g) were purchased from a commercial source (Janvier France) and kept in quarantine for 1 week. The animals were housed in group and drinking water was available ad libitum. To harvest peritoneal macrophages, the mice were first stimulated by intraperitoneal injection of 1 mL of starch solution (2% in PBS). After 24 h, macrophages were collected in RPMI-1640 supplemented with 5% iFCS, 2% penicillin-streptomycin and 1% L-glutamine by peritoneal lavage and immediately distributed in a 96-well plate at a concentration of 30,000 cells/well. The cells were incubated for 24 h at 37°C and 5 % CO2 to allow cell attachment.
(§2) Strains of L. donovani, L. infantum, L. major, L. tropica, L. guyanensis and L. panamensis were selected based on their intrinsic susceptibility to the commonly used reference drugs and their geographic distribution. All strains were cultivated in HOMEM promastigote medium and sub-cultured twice weekly. Passage numbers were kept as low as possible to avoid loss of virulence. For infection of the macrophages, metacyclic promastigote cultures were examined light microscopically for the abundant presence of metacyclic promastigotes. Upon counting, promastigotes were centrifuged and diluted in RPMI-1640 to the desired concentration. The infection ratio varied based on the ability of the strain to adequately infect the host cells and ranged from 5 to 20 promastigotes per macrophage. Macrophages were infected by adding 100 µL promastigote suspension per well onto the macrophages. When ex vivo amastigotes were available (only for two lab strains), macrophages were infected at a ratio of 10/1.
(§3) Stock solutions of the DNDi lead compounds were prepared in 100% DMSO at 20 mM and robotically further diluted in water. Miltefosine (MIL) was included as reference and formulated in water at a concentration of 20 mM. The medium was discarded from the plates to remove any residual non-internalized promastigotes and replaced by fresh RPMI-1640 medium supplemented with iFBS, P/S and L-glutamine (as described above). Next, a 2-fold dilution series of each lead compound was added to the plate with 64 µM as the highest in test-concentration for the DNDi leads and 40 µM for MIL. The 96-well plates were further incubated at 34-37°C and 5% CO2. For staining, the culture medium was discarded, and the plates were left to dry for 2-4 hours. The cells were then fixated with methanol for 10 minutes and stained with a 1/5 Giemsa dilution in water for 15 minutes. The percentage infection-inhibition compared to a positive control (untreated infected macrophages) was microscopically determined and used to calculate the IC50 and IC90 values.

[5] = tested on: L. infantum (LEM3323-cl4 PMM); experiment: as above; type: cell-based; conditions: Macrophage, read-out: IC50 Mean ± SEM
Protocol: as §1, §2, §3

[6] = tested on: L. infantum (MHOM/ES/2016/LLM-2346); experiment: as above; type: cell-based; conditions: Macrophage, Visceral leishmaniasis, L. infantum (MHOM/ES/2016/LLM-2346), Miltefosine: mean only, read-out: IC50 Mean ± SEM
Protocol: as §1, §2, §3

[7] = tested on: L. infantum (LEM3323-cl4 MIL); experiment: as above; type: cell-based; conditions: Macrophage, read-out: IC50 Mean ± SEM
Protocol: as §1, §2, §3

[8] = tested on: L. donovani (MHOM/NP/03/BPK275/0-cl18); experiment: as above; type: cell-based; conditions: Macrophage, Visceral leishmaniasis, L. donovani (MHOM/NP/03/BPK275/0-cl18), Miltefosine: mean only, read-out: IC50 Mean ± SEM
Protocol: as §1, §2, §3

[9] = tested on: L. infantum (MHOM/FR/96/LEM3323-cl4); experiment: as above; type: cell-based; conditions: Macrophage, Visceral leishmaniasis, L. infantum (MHOM/FR/96/LEM3323-cl4), Miltefosine: mean only, read-out: IC50 Mean ± SEM
Protocol: as §1, §2, §3

[10] = tested on: L. infantum (MHOM/BR/2007/WC (L3015)); experiment: as above; type: cell-based; conditions: Macrophage, Visceral leishmaniasis, L. infantum (MHOM/BR/2007/WC (L3015)), Miltefosine: mean only, read-out: IC50 Mean ± SEM
Protocol: as §1, §2, §3

[11] = tested on: L. tropica (MHOM/AF/2015/HTD7); experiment: as above; type: cell-based; conditions: Macrophage, Cutaneous leishmaniasis, L. tropica (MHOM/AF/2015/HTD7), Miltefosine: mean only, read-out: IC50 Mean ± SEM
Protocol: as §1, §2, §3

[12] = tested on: L. major (MHOM/IL/81/Friedlin); experiment: as above; type: cell-based; conditions: Macrophage, Cutaneous leishmaniasis, L. major (MHOM/IL/81/Friedlin), Miltefosine: mean only, read-out: IC50 Mean ± SEM
Protocol: as §1, §2, §3

[13] = tested on: L. major (MHOM/SA/85/JISH118); experiment: as above; type: cell-based; conditions: Macrophage, Cutaneous leishmaniasis, L. major (MHOM/SA/85/JISH118), Miltefosine: mean only, read-out: IC50 Mean ± SEM
Protocol: as §1, §2, §3

[14] = tested on: L. guyanensis (MHOM/PE/02/PER 054/0); experiment: as above; type: cell-based; conditions: Macrophage, Cutaneous leishmaniasis, L. guyanensis (MHOM/PE/02/PER 054/0), Miltefosine: mean only, read-out: IC50 Mean ± SEM
Protocol: as §1, §2, §3

[15] = tested on: L. donovani (MHOM/ NP/2003/BPK282/0-cl4); experiment: as above; type: cell-based; conditions: Macrophage, read-out: IC50 Mean ± SEM
Protocol: as §1, §2, §3

[16] = tested on: L. donovani (MHOM/ET/67/L82); conditions: cited from earlier work

SMILES: CCCCCCCCCCCCCCCCOP(=O)([O-])OCC[N+](C)(C)C [Miltefosine, reference compound]
- % Parasite reduction Bone marrow ([1]; bone marrow): 92.1-99.0%
- % Parasite reduction Liver ([1]; liver): 97.0-98.2%
- % Parasite reduction Spleen ([1]; spleen): 95.7-99.5%
- CC50 [2]: 38500 nM
- IC50 ([3]; L. infantum infected macrophages, IJP: Drugs and Drug Resistance, 2018, 8, Issue 1, 81-86): 3500 ± 400 nM
- IC50 ([3]; L. infantum, data from IJP: Drugs and Drug Resistance, 2018, 8, 81-86): 3500 ± 400 nM
- IC50 [4]: 1810 nM
- IC50 [5]: 20300 nM
- IC50 [6]: 2160 nM
- IC50 [7]: 2010 nM
- IC50 [8]: 2070 nM
- IC50 [9]: 1810 nM
- IC50 [10]: 2690 nM
- IC50 [11]: 2160 nM
- IC50 [12]: 11300 nM
- IC50 [13]: 24000 nM
- IC50 [14]: 8060 nM
- IC50 [15]: 2010 nM
- IC50 ([16]; L. donovani infected macrophages, IJP: Drugs and Drug Resistance, 2018, 8, Issue 1, 81-86): 1800 ± 400 nM
- IC50 ([16]; L. donovani, data from IJP: Drugs and Drug Resistance, 2018, 8, 81-86): 1800 ± 400 nM
